Patent US20050026836A1, “Composition for the treatment of damaged tissue” (priority 1999, published 2005)

Legend:
Assay type in all cases: biochemical
[1] = target: T1, catalytic domain human MMP-1 (Homo sapiens, UniProt P03956); assay: MMP-1 fluorogenic inhibition assay; conditions: * limited by compound solubility; read-out: Calculated Ki(nM) MMP-1
T1 construct: made in house
T1 sequence (P03956 100-269 limits assumed): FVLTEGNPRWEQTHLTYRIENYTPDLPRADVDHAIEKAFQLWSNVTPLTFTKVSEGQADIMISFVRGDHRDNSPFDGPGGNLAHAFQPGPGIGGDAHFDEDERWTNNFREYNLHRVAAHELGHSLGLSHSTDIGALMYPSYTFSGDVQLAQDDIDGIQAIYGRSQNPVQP
Description: (§1) All enzymes were pre-activated at 37° C. with aminophenylmercuric acetate (APMA) or trypsin before being made up to the final concentrations used in the assay.
(§2) For MMP-1, the assay buffer used was 50 mM Tris, 200 mM NaCl, 5 mM CaCl2, 20 μM ZnCl2, 0.05% (w/v) Brij 35, pH 7.5. […] For MMP-13, the assay buffer used was 50 mM Tris, pH 7.5, 200 mM NaCl, 5 mM CaCl2, […] and 0.02% (w/v) Brij 35.
The incubation was performed at 37° C. for 60 minutes.
(§3) For MMP-2, the final assay concentrations of inhibitors used were 1000, 800, 600, 400, 200 and 100 nM. For MMP-3, the final assay concentrations of inhibitors used were 5, 4, 3, 2, 1 and 0.5 nM. For MMP-9 and MMP-14, the final assay concentrations of inhibitors used were 5, 4, 3, 2, 1 and 0.5 μM.
(§4) All assays were carried out in a black 96-well plate with a final volume of 100 μl in each well. Inhibitors were dissolved in dimethylsulphoxide (DMSO) to 1 mM. Solutions were then serially diluted in buffer to give the final concentrations shown.
(§5) These were estimated using the following equation: IC50=(Ki*[…], where S is the substrate concentration and Km the Michaelis-Menton coefficient. Serine Protease Assays

[2] = target: catalytic domain of human MMP-2 (Homo sapiens, UniProt P08253); assay: MMP-2 fluorogenic inhibition assay; conditions: read-out: Calculated Ki(nM) MMP-2
Description: as §1, §2
(§6) MMP-2, MMP-3 and MMP-9 inhibition was assayed by incubating activated catalytic domain of human MMP-2, MMP-3 and MMP-9 at 1 nM in assay buffer with 5 μM substrate Mca-Arg-Pro-Lys-Pro-Tyr-Ala-Nva-Trp-Met-Lys(Dnp)-NH2, and six different concentrations of inhibitor. The incubation was performed at 37° C. for 60 minutes.
as §3
All assays were carried out in a black 96-well plate with a final volume of 100 μl in each well. Inhibitors were dissolved in dimethylsulphoxide (DMSO) to 1 mM. Solutions were then serially diluted in buffer to give the final concentrations shown. […]

[3] = target: T2, catalytic domain of human MMP-3 (Homo sapiens, UniProt P08254); assay: MMP-3 fluorogenic inhibition assay
T2 construct: made in house
Description: as §1, §2, §6, §3, §4, §5

[4] = target: T3, catalytic domain of human MMP-9 (Homo sapiens, UniProt P14780); assay: MMP-9 fluorogenic inhibition assay; conditions: read-out: Calculated Ki(nM) MMP-9
T3 sequence (P14780 with tags, fused parts or gaps DEL216-390 limits assumed): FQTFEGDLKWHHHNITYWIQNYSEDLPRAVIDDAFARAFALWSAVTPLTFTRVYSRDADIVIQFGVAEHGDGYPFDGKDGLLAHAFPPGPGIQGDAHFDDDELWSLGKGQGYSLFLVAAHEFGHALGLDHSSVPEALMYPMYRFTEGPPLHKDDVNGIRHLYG
Description: All enzymes were pre-activated at 37° C. with aminophenylmercuric acetate (APMA) or trypsin before being made up to the final concentrations used in the assay. MMP-1 (30 nM) was activated with 0.93 mM APMA for 20 minutes, MMP-2 (30 nM) was activated with 1.32 mM APMA for 1 hour, MMP-3 (1010 nM) was activated with 1.81 mM APMA for 3 hours or heat activated at 55° C. for three hours, MMP-9 (100 nM) was activated with 2 mM APMA for 2 hours, human MMP-13 (100 nM) was activated with 2 mM APMA for 2 hours, and MMP-14 (900 nM) was activated with 0.9 ng/ml trypsin for 25 minutes, followed by the addition of 4.5 ng/ml trypsin inhibitor.
as §2, with “35. For MMP-14, the assay buffer used was 50 mM Tris, 100 mM NaCl, 10 mM CaCl2, 0.25% (w/v) Brij 35, pH 7.5.” for “35.”
as §6
as §3, with “The final assay concentrations of inhibitors used in the MMP-1 assays to determine Ki were 50, 40, 30, 20, 10 and 5 μM. For MMP-2,” for “For MMP-2,”
All assays were carried out in a black 96-well plate with a final volume of 100 μl in each well. […] For MMP-2, MMP-3, MMP-9 and MMP-14, fluorescence was read every 2 minutes at […] and 393 nm γem for 1 hour using a Fluorostar fluorimeter (BMG) with BIOLISE software. For MMP-1 assays, the filters used were 355 nm γex and 440 nm γem; fluorescence was read every 2 minutes for 1 hour. […]

[5] = target: T4, MMP-13 (Homo sapiens, UniProt P45452); assay: MMP-13 fluorogenic inhibition assay; conditions: estimated from IC50; read-out: Calculated Ki(nM) MMP-13
T4 construct: made in house
Description: as §1, §2
Assays were carried out in 96-well microfluor plates. All incubations were performed at 37° C. and fluorescence readings determined at 360 nm γex and 450 nm γem.
For the assay, the fluorescence values at time zero were subtracted from those determined at 15 or 20 minutes. The % response was then calculated by comparison to positive controls (enzyme, buffer and substrate in the absence of inhibitor). IC50 values were then determined using FitCurve (Excel Tessella Stats add-in).
as §5

[6] = target: T4, MMP-13; assay: Reduction of MMP-13-catalysed degradation of KGF-2; conditions: MMP-13 / KGF-2, read-out: Percentage inhibition of proteolysis

T2 sequence (P08254 100-272 limits assumed): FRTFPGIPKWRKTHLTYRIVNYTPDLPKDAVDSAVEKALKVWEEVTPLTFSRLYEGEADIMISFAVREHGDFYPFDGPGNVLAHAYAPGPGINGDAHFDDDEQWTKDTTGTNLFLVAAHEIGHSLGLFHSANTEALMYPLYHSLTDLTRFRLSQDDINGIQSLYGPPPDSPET
Sequence of catalytic domain of human MMP-2 (P08253 with tags, fused parts or gaps DEL222-396 limits assumed): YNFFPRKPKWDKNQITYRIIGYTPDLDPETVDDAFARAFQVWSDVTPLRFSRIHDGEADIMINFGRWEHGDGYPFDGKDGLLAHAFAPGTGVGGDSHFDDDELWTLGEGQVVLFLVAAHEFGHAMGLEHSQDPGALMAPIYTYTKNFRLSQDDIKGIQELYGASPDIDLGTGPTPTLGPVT

Question: What does the source list for COC[C@@H](NC(=O)[C@@H](NC(=O)[C@H](CCCc1ccc(-c2cccc(OC)c2)c(C)c1)CC(=O)O)C(C)(C)C)c1ccccc1 [compound 9454, (3R)-3-({[(1S)-2,2-Dimethyl-1-({[(1S)-2-methoxy-1-phenylethyl]amino}carbonyl)propyl]amino}carbonyl)-6-(3′-methoxy-2-methylbiphen-4-yl)hexanoic acid]?
Answer: Ki [1]: > 19400 nM; Ki [2]: 35200 nM; Selectivity among MMPs (in words) ([3]; from Ki values of Table 3 (MMP-1, -2, -3, -9, -13, -14)): selective MMP-3 inhibitor; Ki ([3]; read-out: Calculated Ki(nM) MMP-3): 44 nM; Ki [4]: 52400 nM; Ki [5]: 857 nM; inhibition at 0.1 µM ([6]; inhibitor 0.1 μM): 1.6%; inhibition at 1 µM ([6]; inhibitor 1 μM): 10%; inhibition at 10 µM ([6]; inhibitor 10 μM): 23.7%; inhibition at 100 µM ([6]; inhibitor 100 μM): 82.9%
